# Measurements taken from PubChem BioAssay AID248 (DTP/NCI, 2004).
# Values joined by “and” are separate entries in the source; they are usually repeats but may differ in a detail not shown here. Equal values may be shown once. Inconclusive results and toxic doses are left out.
# System: L1210 leukemia ip in BDF1 mice, survival T/C
# Experiment: NCI In Vivo Anticancer Drug Screen. Data for tumor model L1210 Leukemia (intraperitoneal) in B6D2F1 (BDF1) mice
# Conditions: endpoint: mean survival time, higher = longer survival
# Outline: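 Antitumor effect is assessed in tumor-bearing animals. Survival in the compound arm is compared with a vehicle-dosed control arm and expressed as their quotient.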
# [1] = dose: 50.0 mg/kg/injection, schedule: Q04DX003 (ip), vehicle: saline
# [2] = dose: 100.0 mg/kg/injection, schedule: Q01DX001 (ip), vehicle: saline
# [3] = dose: 200.0 mg/kg/injection, schedule: Q04DX003 (ip), vehicle: saline
# [4] = dose: 100.0 mg/kg/injection, schedule: Q04DX003 (ip), vehicle: saline with Tween-80
# [5] = dose: 200.0 mg/kg/injection, schedule: Q04DX003 (ip), vehicle: saline with Tween-80
# [6] = dose: 400.0 mg/kg/injection, schedule: Q04DX003 (ip), vehicle: saline with Tween-80
# [7] = dose: 100.0 mg/kg/injection, schedule: Q04DX003 (ip), vehicle: saline
# [8] = dose: 200.0 mg/kg/injection, schedule: Q01DX001 (ip), vehicle: saline
# [9] = dose: 400.0 mg/kg/injection, schedule: Q04DX003 (ip), vehicle: saline
# [10] = dose: 75.0 mg/kg/injection, schedule: Q01DX001 (ip), vehicle: saline
# [11] = dose: 100.0 mg/kg/injection, schedule: Q04DX003 (ip), vehicle: Klucel (hydroxypropylcellulose) (HPC)
# [12] = dose: 75.0 mg/kg/injection, schedule: Q01DX001 (ip), vehicle: acetone
smiles,measurement,setting,value
c1nnc(NCNc2nncs2)s1,T/C,"dose: 2.6 mg/kg/injection, schedule: Q01DX009 (ip), vehicle: Klucel (hydroxypropylcellulose) (HPC)",115 % of control
same,T/C,"dose: 6.0 mg/kg/injection, schedule: Q01DX009 (ip), vehicle: Klucel (hydroxypropylcellulose) (HPC)",124 % of control
same,T/C,"dose: 7.5 mg/kg/injection, schedule: Q01DX009 (ip), vehicle: saline",122 % of control
same,T/C,"dose: 12.0 mg/kg/injection, schedule: Q04DX003 (ip), vehicle: Klucel (hydroxypropylcellulose) (HPC)",121 % of control
same,T/C,"dose: 15.0 mg/kg/injection, schedule: Q01DX009 (ip), vehicle: saline",120 % of control
same,T/C,"dose: 18.0 mg/kg/injection, schedule: Q04DX003 (ip), vehicle: Klucel (hydroxypropylcellulose) (HPC)",122 % of control
same,T/C,"dose: 19.0 mg/kg/injection, schedule: Q01DX009 (ip), vehicle: saline",154 % of control
same,T/C,"dose: 20.0 mg/kg/injection, schedule: Q01DX009 (ip), vehicle: Klucel (hydroxypropylcellulose) (HPC)",109 % of control
same,T/C,"dose: 30.0 mg/kg/injection, schedule: Q01DX009 (ip), vehicle: Klucel (hydroxypropylcellulose) (HPC)",95 % of control
same,T/C,"dose: 30.0 mg/kg/injection, schedule: Q01DX009 (ip), vehicle: saline",166 % of control
same,T/C,"dose: 45.0 mg/kg/injection, schedule: Q01DX009 (ip), vehicle: Klucel (hydroxypropylcellulose) (HPC)",87 % of control
same,T/C,"dose: 45.0 mg/kg/injection, schedule: Q01DX009 (ip), vehicle: saline",114 % of control
same,T/C,"dose: 50.0 mg/kg/injection, schedule: Q01DX001 (ip), vehicle: saline",110 % of control
same,T/C,[1],111 % of control
same,T/C,"dose: 60.0 mg/kg/injection, schedule: Q01DX009 (ip), vehicle: saline",115 % of control
same,T/C,[2],117 % of control
same,T/C,[3],167 % of control and 168 % of control
same,T/C,"dose: 300.0 mg/kg/injection, schedule: Q04DX003 (ip), vehicle: Klucel (hydroxypropylcellulose) (HPC)",106 % of control
same,T/C,"dose: 300.0 mg/kg/injection, schedule: Q04DX003 (ip), vehicle: saline",113 % of control
O=C1c2ccccc2C(=O)c2c(Sc3ccccc3)cccc21,T/C,[4],96 % of control
same,T/C,[5],98 % of control
same,T/C,[6],95 % of control
CCO/N=C(/N)N=C(N)N,T/C,[2],92 % of control
same,T/C,"dose: 100.0 mg/kg/injection, schedule: Q01DX009 (ip), vehicle: saline",106 % of control
same,T/C,[7],95 % of control
same,T/C,[8],97 % of control
same,T/C,"dose: 200.0 mg/kg/injection, schedule: Q01DX009 (ip), vehicle: saline",107 % of control
same,T/C,[3],91 % of control
same,T/C,"dose: 400.0 mg/kg/injection, schedule: Q01DX001 (ip), vehicle: saline",92 % of control
same,T/C,"dose: 400.0 mg/kg/injection, schedule: Q01DX009 (ip), vehicle: saline",97 % of control
same,T/C,[9],91 % of control
O=C(Nc1ccccc1)C(CCCN1C(=O)c2ccccc2C1=O)N1C(=O)c2ccccc2C1=O (stereo unspecified),T/C,[10],100 % of control
same,T/C,"dose: 150.0 mg/kg/injection, schedule: Q01DX001 (ip), vehicle: saline",104 % of control
same,T/C,"dose: 300.0 mg/kg/injection, schedule: Q01DX001 (ip), vehicle: saline",96 % of control
CCN(CC)C(=O)C(Cc1ccc(OC)c(OC)c1)C(Cc1ccc(OC)c(OC)c1)C(=O)O (stereo unspecified),T/C,[4],114 % of control
same,T/C,[5],102 % of control
same,T/C,[6],105 % of control
C#CCN(CC#C)C(=O)Nc1ccc(Cl)cc1,T/C,"dose: 25.0 mg/kg/injection, schedule: Q04DX002 (ip), vehicle: saline with Tween-80",96 % of control
same,T/C,"dose: 50.0 mg/kg/injection, schedule: Q04DX002 (ip), vehicle: saline with Tween-80",96 % of control
same,T/C,"dose: 100.0 mg/kg/injection, schedule: Q04DX002 (ip), vehicle: saline with Tween-80",99 % of control and 106 % of control
O=C(CBr)c1ccc2c3c(cccc13)C=C2,T/C,[10],98 % of control
CC1(C)Cc2cccc(C(=O)CCCN3CCCCC3)c2O1,T/C,[2],104 % of control
CN1CCC=C(CN2c3ccccc3Sc3ccc(Cl)cc32)C1,T/C,"dose: 12.5 mg/kg/injection, schedule: Q01DX009 (ip), vehicle: saline",119 % of control
same,T/C,"dose: 12.5 mg/kg/injection, schedule: Q04DX003 (ip), vehicle: saline",101 % of control
same,T/C,"dose: 16.5 mg/kg/injection, schedule: Q04DX003 (ip), vehicle: saline",98 % of control
same,T/C,"dose: 25.0 mg/kg/injection, schedule: Q01DX009 (ip), vehicle: saline",113 % of control
same,T/C,"dose: 25.0 mg/kg/injection, schedule: Q04DX003 (ip), vehicle: saline",105 % of control
same,T/C,"dose: 37.5 mg/kg/injection, schedule: Q04DX003 (ip), vehicle: saline",105 % of control
same,T/C,"dose: 50.0 mg/kg/injection, schedule: Q01DX009 (ip), vehicle: saline",114 % of control
same,T/C,[1],110 % of control
CC(C)(C)CC(C)(C)c1ccc(OCCOc2ccc([N+](=O)[O-])cc2N)cc1,T/C,"dose: 100.0 mg/kg/injection, schedule: Q01DX009 (ip), vehicle: Klucel (hydroxypropylcellulose) (HPC)",97 % of control
same,T/C,[11],98 % of control
same,T/C,"dose: 200.0 mg/kg/injection, schedule: Q01DX009 (ip), vehicle: Klucel (hydroxypropylcellulose) (HPC)",97 % of control
same,T/C,"dose: 200.0 mg/kg/injection, schedule: Q04DX003 (ip), vehicle: Klucel (hydroxypropylcellulose) (HPC)",93 % of control
same,T/C,"dose: 400.0 mg/kg/injection, schedule: Q01DX009 (ip), vehicle: Klucel (hydroxypropylcellulose) (HPC)",101 % of control
same,T/C,"dose: 400.0 mg/kg/injection, schedule: Q04DX003 (ip), vehicle: Klucel (hydroxypropylcellulose) (HPC)",86 % of control
CCCCCCCCCCC1CCC2CCC3CCCC4CCC1C2C34 (stereo unspecified),T/C,"dose: 25.0 mg/kg/injection, schedule: Q04DX003 (ip), vehicle: acetone",96 % of control
same,T/C,"dose: 50.0 mg/kg/injection, schedule: Q04DX003 (ip), vehicle: acetone",88 % of control
same,T/C,[2],88 % of control
same,T/C,"dose: 100.0 mg/kg/injection, schedule: Q04DX003 (ip), vehicle: acetone",86 % of control
same,T/C,[8],90 % of control
Cc1cc(/C=C/c2ccc3cc(N(C)C)ccc3[n+]2C)c(C)n1-c1ccccc1,T/C,"dose: 1.56 mg/kg/injection, schedule: Q01DX009 (ip), vehicle: saline with Tween-80",112 % of control
N#Cc1c(F)c(F)c(C(F)(F)F)c(F)c1F,T/C,"dose: 6.0 mg/kg/injection, schedule: Q01DX009 (ip), vehicle: saline with Tween-80",103 % of control
same,T/C,"dose: 12.0 mg/kg/injection, schedule: Q01DX009 (ip), vehicle: saline with Tween-80",104 % of control
same,T/C,"dose: 25.0 mg/kg/injection, schedule: Q01DX009 (ip), vehicle: saline with Tween-80",93 % of control
same,T/C,"dose: 50.0 mg/kg/injection, schedule: Q01DX009 (ip), vehicle: other",103 % of control
CCOP(N)(=O)SC (stereo unspecified),T/C,"dose: 5.0 mg/kg/injection, schedule: Q01DX001 (ip), vehicle: saline",101 % of control
O=C(O)C(=O)Cc1nnn(-c2ccccc2)c1-c1ccccc1,T/C,[12],95 % of control
same,T/C,"dose: 150.0 mg/kg/injection, schedule: Q01DX001 (ip), vehicle: acetone",101 % of control
same,T/C,"dose: 300.0 mg/kg/injection, schedule: Q01DX001 (ip), vehicle: acetone",95 % of control
Cn1ncc2c1NC(c1ccc(F)cc1)SCC2=O (stereo unspecified),T/C,"dose: 400.0 mg/kg/injection, schedule: Q01DX009 (ip), vehicle: gum acacia",108 % of control
O=P(Cc1ccccc1)(Cc1ccccc1)c1ccccc1,T/C,"dose: 25.0 mg/kg/injection, schedule: Q04DX003 (ip), vehicle: Klucel (hydroxypropylcellulose) (HPC)",102 % of control
same,T/C,"dose: 50.0 mg/kg/injection, schedule: Q04DX003 (ip), vehicle: Klucel (hydroxypropylcellulose) (HPC)",118 % of control
same,T/C,[11],95 % of control and 104 % of control
N#CCCc1ccnc2ccccc12,T/C,[7],100 % of control
same,T/C,[3],102 % of control
same,T/C,[9],100 % of control
Clc1cc2c(cc1CO/N=C\c1ccc3c(c1)OCO3)OCO2,T/C,"dose: 100.0 mg/kg/injection, schedule: Q04DX003 (ip), vehicle: saline sonified",90 % of control
same,T/C,"dose: 200.0 mg/kg/injection, schedule: Q04DX003 (ip), vehicle: saline sonified",88 % of control
c1ccc2cc3nc4cc5ccccc5cc4nc3cc2c1,T/C,"dose: 100.0 mg/kg/injection, schedule: Q01DX001 (ip), vehicle: acetone",95 % of control
same,T/C,"dose: 100.0 mg/kg/injection, schedule: Q01DX009 (ip), vehicle: saline with Tween-80",93 % of control
same,T/C,"dose: 200.0 mg/kg/injection, schedule: Q01DX001 (ip), vehicle: acetone",95 % of control
same,T/C,"dose: 200.0 mg/kg/injection, schedule: Q01DX009 (ip), vehicle: saline with Tween-80",103 % of control
same,T/C,"dose: 400.0 mg/kg/injection, schedule: Q01DX001 (ip), vehicle: acetone",92 % of control
same,T/C,"dose: 400.0 mg/kg/injection, schedule: Q01DX009 (ip), vehicle: saline with Tween-80",87 % of control
ClC12CCC(Cl)(CC1)CC2,T/C,[12],103 % of control
